How the values were obtained:
JAK3 = molecular target: T1, JAK3 (Homo sapiens, UniProt P52333); experiment: Jak Biochemical HTRF Assay (JAK3); settings: recombinant purified GST-tagged catalytic domain, [ATP] 2.9 μM, values given as range classes
T1 construct: recombinant purified GST-tagged catalytic domain for each enzyme; purchased Invitrogen M4290
Description: (§1) Jak Biochemical HTRF Assay Protocol
(§2) The ability of compounds to inhibit the activity of JAK1, JAK2, JAK3, and Tyk2 was measured using a recombinant purified GST-tagged catalytic domain for each enzyme (Invitrogen JAK1 #M4290, JAK2 #M4290, JAK3 #M4290, Tyk2 #M4290) in an HTRF format biochemical assay. The reactions employed a common peptide substrate, LCB-EQEDEPEGDYFEWLW-NH2 (in-house). The basic assay protocol is as follows: First, 250 nL of diluted compounds in DMSO were dispensed into the wells of a dry 384-well Black plate (Greiner #781076) using a Labcyte Echo 555 acoustic dispenser. Subsequent reagent additions employed an Agilent Bravo. Next, 18 μL of 1.11× enzyme and 1.11× substrate in 1× assay buffer (Invitrogen kinase buffer #PV3189, 2 mM DTT, 0.05% BSA) were added to the wells and shaken and then preincubated for 30 minutes at room temperature to allow compound binding to equilibrate. After equilibration, 2 μL of 10×ATP in 1× assay buffer was added to initiate the kinase reaction and the plates were shaken and then incubated at room temperature for 120 minutes. At the end of the incubation, 20 μL of 2× stop buffer (streptavidin-Dylight 650 (Thermo #84547B/100 mL), Eu-tagged pY20 antibody (Perkin Elmer #AD0067), EDTA, HEPES, and Triton) was added to quench the reaction. Plates were shaken and centrifuged and then incubated 60 minutes at room temperature and then read on a Perkin Elmer Envision (λex=337 nm, λem=665 and 615 nm, TRF delay time=20 μs). HTRF signal=10,000*665 nm reading/615 nm reading. After normalization to untreated controls, the percent inhibition of the HTRF signal at each compound concentration was calculated. The plot of percent inhibition versus the log of compound concentration was fit with a 4-parameter dose response equation to calculate IC50 values.
(§3) Final reaction conditions were:
(§4) Examples of the instant invention were evaluated in JAK2 and JAK3 in vitro binding assays. Table 13 tabulates the biological data disclosed for the instant invention as a range of JAK2 and JAK3 IC50 values (A: IC50≦10 nM; B: 10 nM>IC50≦500 nM C: IC50>500 nM).

JAK2 = molecular target: T2, JAK2 (Homo sapiens, UniProt O60674); experiment: Jak Biochemical HTRF Assay (JAK2); settings: recombinant purified GST-tagged catalytic domain, [ATP] 8.5 μM, values given as range classes
T2 construct: recombinant purified GST-tagged catalytic domain for each enzyme; purchased Invitrogen M4290
T2 sequence (O60674 849-1124 limits assumed): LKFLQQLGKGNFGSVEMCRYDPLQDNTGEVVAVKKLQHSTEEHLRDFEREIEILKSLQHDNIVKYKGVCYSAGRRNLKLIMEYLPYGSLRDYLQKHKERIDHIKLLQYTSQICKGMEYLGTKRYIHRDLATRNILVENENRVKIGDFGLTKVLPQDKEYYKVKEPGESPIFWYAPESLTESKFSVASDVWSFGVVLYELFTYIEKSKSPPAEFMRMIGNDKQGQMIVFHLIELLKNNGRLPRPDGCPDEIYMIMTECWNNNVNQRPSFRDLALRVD
Description: as §1, §2, §3, §4

T1 sequence (P52333 822-1111 limits assumed): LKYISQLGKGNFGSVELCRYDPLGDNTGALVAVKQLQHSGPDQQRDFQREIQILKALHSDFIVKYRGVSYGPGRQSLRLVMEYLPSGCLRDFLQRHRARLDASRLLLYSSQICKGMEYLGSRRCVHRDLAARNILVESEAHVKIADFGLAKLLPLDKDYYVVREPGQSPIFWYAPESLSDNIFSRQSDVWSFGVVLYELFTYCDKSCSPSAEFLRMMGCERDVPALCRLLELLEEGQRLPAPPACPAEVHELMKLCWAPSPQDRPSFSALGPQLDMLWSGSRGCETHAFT

IC50 (JAK3) | IC50 (JAK2) | SMILES
≤ 10 nM | 10 to 500 nM | CC(C)C(Nc1cncc(-c2c[nH]c3ncc(NC(=O)N[C@@H](C)C(=O)O)cc23)c1)C(=O)NCC(F)(F)F (stereo partly drawn) [Example 6-4, N-({3-[5-({2-methyl-1-[(2,2,2-trifluoroethyl)carbamoyl]propyl}amino)pyridin-3-yl]-1H-pyrrolo[2,3-b]pyridin-5-yl}carbamoyl)alanine]
10 to 500 nM | > 500 nM | CC(C)[C@@H](Nc1cncc(-c2c[nH]c3ncc(C(=O)N4CCC(O)CC4)cc23)c1)C(=O)NCC(F)(F)F [Example 3-13, N~2~-(5-{5-[(4-hydroxypiperidin-1-yl)carbonyl]-1H-pyrrolo[2,3-b]pyridin-3-yl}pyridin-3-yl)-N-(2,2,2-trifluoroethyl)-D-valinamide]
≤ 10 nM | 10 to 500 nM | CC1c2ncc(C(F)(F)F)n2CCN1c1cnnc(-c2c[nH]c3ncc(C(N)=O)cc23)n1 (stereo not drawn) [Example 1-15, 3-{5-[8-methyl-3-(trifluoromethyl)-5,6-dihydroimidazo[1,2-a]pyrazin-7(8H)-yl]-1,2,4-triazin-3-yl}-1H-pyrrolo[2,3-b]pyridine-5-carboxamide]
≤ 10 nM | 10 to 500 nM | CC(C)[C@@H](Nc1cnnc(-c2c[nH]c3ncc(Cl)cc23)n1)C(=O)NCC(F)(F)F [Example 1-3, N~2~-[3-(5-chloro-1H-pyrrolo[2,3-b]pyridin-3-yl)-1,2,4-triazin-5-yl]-N-(2,2,2-trifluoroethyl)-D-valinamide]
10 to 500 nM | 10 to 500 nM | Clc1cnc2[nH]cc(-c3nncc(N4CCCC4c4nccs4)n3)c2c1 (stereo not drawn) [Example 1-5, 5-chloro-3-{5-[2-(1,3-thiazol-2-yl)pyrrolidin-1-yl]-1,2,4-triazin-3-yl}-1H-pyrrolo[2,3-b]pyridine]
≤ 10 nM | 10 to 500 nM | CC(C)(Nc1cnnc(-c2c[nH]c3ncc(F)cc23)n1)C(=O)NCC(F)(F)F [Example 1-6, N~2~-[3-(5-fluoro-1H-pyrrolo[2,3-b]pyridin-3-yl)-1,2,4-triazin-5-yl]-2-methyl-N-(2,2,2-trifluoroethyl)alaninamide]
≤ 10 nM | 10 to 500 nM | C[C@@H](Nc1cnnc(-c2c[nH]c3ncc(C#N)cc23)n1)C(=O)NCC(F)(F)F [Example 1-9, N~2~-[3-(5-cyano-1H-pyrrolo[2,3-b]pyridin-3-yl)-1,2,4-triazin-5-yl]-N-(2,2,2-trifluoroethyl)-D-alaninamide]
≤ 10 nM | 10 to 500 nM | O=C(NCC(F)(F)F)C(Nc1cncc(-c2c[nH]c3ncc(Cl)cc23)c1)C1CC1 (stereo not drawn) [Example 1-48, 2-{[5-(5-chloro-1H-pyrrolo[2,3-b]pyridin-3-yl)pyridin-3-yl]amino}-2-cyclopropyl-N-(2,2,2-trifluoroethyl)acetamide]
≤ 10 nM | 10 to 500 nM | C[C@@H](Nc1cncc(-c2c[nH]c3ncc(Cl)cc23)c1)C(=O)NCC(F)(F)F [Example 1-29, N~2~-[5-(5-chloro-1H-pyrrolo[2,3-b]pyridin-3-yl)pyridin-3-yl]-N-(2,2,2-trifluoroethyl)-D-alaninamide]
≤ 10 nM | 10 to 500 nM | CC(C)[C@@H](Nc1cncc(-c2c[nH]c3ncc(COC4CCN(C(=O)OC(C)(C)C)CC4)cc23)c1)C(=O)NCC(F)(F)F [Example 9-6, tert-butyl 4-({3-[5-({(1R)-2-methyl-1-[(2,2,2-trifluoroethy)carbamoyl]propyl}amino)pyridin-3-yl]-1H-pyrrolo[2,3-b]pyridin-5-yl}methoxy)piperidine-1-carboxylate]
≤ 10 nM | 10 to 500 nM | O=C(NCC(F)(F)F)[C@H]1CCCC[C@H]1Nc1cncc(-c2c[nH]c3ncc(Cl)cc23)c1 [Example 1-33, (1S,2R)-2-{[5-(5-chloro-1H-pyrrolo[2,3-b]pyridin-3-yl)pyridin-3-yl]amino}-N-(2,2,2-trifluoroethyl)cyclohexane-carboxamide]
≤ 10 nM | 10 to 500 nM | N#Cc1cnc2[nH]cc(-c3cncc(N[C@@H]4CCCC[C@@H]4C(=O)NCC(F)(F)F)c3)c2c1 [Example 1-38, (1S,2R)-2-{[5-(5-cyano-1H-pyrrolo[2,3-b]pyridin-3-yl)pyridin-3-yl]amino}-N-(2,2,2-trifluoroethyl)cyclohexane-carboxamide]
≤ 10 nM | 10 to 500 nM | CC(C)(Nc1cncc(-c2c[nH]c3ncc(C(N)=O)cc23)c1)C(=O)NCC(F)(F)F [Example 1-47, 3-[5-({1,1-dimethyl-2-oxo-2-[(2,2,2-trifluoroethyl)amino]ethyl}amino)pyridin-3-yl]-1H-pyrrolo[2,3-b]pyridine-5-carboxamide]
≤ 10 nM | 10 to 500 nM | CC(C)(Nc1cncc(-c2c[nH]c3ncc(Cl)cc23)c1)C(=O)NCC(F)(F)F [Example 1-27, N~2~-[5-(5-chloro-1H-pyrrolo[2,3-b]pyridin-3-yl)pyridin-3-yl]-2-methyl-N-(2,2,2-trifluoroethyl)alaninamide]
≤ 10 nM | ≤ 10 nM | CC(C)NC(=O)c1cnc2[nH]cc(-c3cncc(N[C@@H](C(=O)NCC(F)(F)F)C(C)C)c3)c2c1 [Example 3-2, N-(1-methylethyl)-3-[5-({(1R)-2-methyl-1-[(2,2,2-trifluoroethyl)carbamoyl]propyl}amino)pyridin-3-yl]-1H-pyrrolo[2,3-b]pyridine-5-carboxamide]
10 to 500 nM | > 500 nM | C[C@@H](Nc1cncc(-c2c[nH]c3ncc(Cl)c(F)c23)c1)C(=O)NCC(F)(F)F [Example 1-36, N~2~-[5-(5-chloro-4-fluoro-1H-pyrrolo[2,3-b]pyridin-3-yl)pyridin-3-yl]-N-(2,2,2-trifluoroethyl)-D-alaninamide]
≤ 10 nM | 10 to 500 nM | CC(C)[C@H](Nc1cncc(-c2c[nH]c3ncc(NC(=O)Nc4ccc(F)cc4F)cc23)c1)C(=O)NCC(F)(F)F [Example 6-3, N~2~-[5-(5-{[(2,4-difluorophenyl)carbamoyl]amino}-1H-pyrrolo[2,3-b]pyridin-3-yl)pyridin-3-yl]-N-(2,2,2-trifluoroethyl)valinamide]
10 to 500 nM | 10 to 500 nM | CC(C)[C@H](Nc1cncc(-c2c[nH]c3ncc(N)cc23)c1)C(=O)NCC(F)(F)F [Example 5-1, N^2-[5-(5-amino-1H-pyrrolo[2,3-b]pyridin-3-yl)pyridin-3-yl]-N-(2,2,2-trifluoroethyl)valinamide]
10 to 500 nM | > 500 nM | CC(=O)NCc1cnc2[nH]cc(-c3cncc(N[C@H](C(=O)NCC(F)(F)F)C(C)C)c3)c2c1 [Example 10-5, N~2~-(5-{5-[(acetylamino)methyl]-1H-pyrrolo[2,3-b]pyridin-3-yl}pyridin-3-yl)-N-(2,2,2-trifluoroethyl)valinamide]
≤ 10 nM | 10 to 500 nM | COc1cnc2[nH]cc(-c3cncc(N[C@H](C(=O)NCC(F)(F)F)C(C)C)c3)c2c1 [Example 1-45, N~2~-[5-(5-methoxy-1H-pyrrolo[2,3-b]pyridin-3-yl)pyridin-3-yl]-N-(2,2,2-trifluoroethyl)valinamide]
≤ 10 nM | 10 to 500 nM | CC(C)[C@@H](Nc1cncc(-c2c[nH]c3ncc(C(=O)NCC4CCS(=O)(=O)C4)cc23)c1)C(=O)NCC(F)(F)F (stereo partly drawn) [Example 3-9, N-[(1,1-dioxidotetrahydrothiophen-3-yl)methyl]-3-[5-({(1R)-2-methyl-1-[(2,2,2-trifluoroethyl)carbamoyl]propyl}amino)pyridin-3-yl]-1H-pyrrolo[2,3-b]pyridine-5-carboxamide]
10 to 500 nM | 10 to 500 nM | CC(C)=CC(=O)NCc1cnc2[nH]cc(-c3cncc(N[C@H](C(=O)NCC(F)(F)F)C(C)C)c3)c2c1 [Example 10-8, N~2~-[5-(5-{[(3-methylbut-2-enoyl)amino]methyl}-1H-pyrrolo[2,3-b]pyridin-3-yl)pyridin-3-yl]-N-(2,2,2-trifluoroethyl)valinamide]
10 to 500 nM | 10 to 500 nM | CC(C)[C@@H](Nc1cncc(-c2c[nH]c3ncc(NS(C)(=O)=O)cc23)c1)C(=O)NCC(F)(F)F [Example 5-5, N^2-(5-{5-[(methylsulfonyl)amino]-1H-pyrrolo[2,3-b]pyridin-3-yl}pyridin-3-yl)-N-(2,2,2-trifluoroethyl)-D-valinamide]
≤ 10 nM | 10 to 500 nM | C[C@@H](Nc1cnnc(-c2c[nH]c3ncc(C(F)(F)F)cc23)c1)C(=O)NCC(F)(F)F [Example 1-25, N-(2,2,2-trifluoroethyl)-N~2~-{6-[5-(trifluoromethyl)-1H-pyrrolo[2,3-b]pyridin-3-yl]pyridazin-4-yl}-D-alaninamide]
